In patent publication US20250057158A1 (priority 2021, published 2025):
Like-named read-outs stand apart in the source and are kept apart here.

Assays:
Botrytis cinerea = test: Pot experiment, tomato gray mold (diseased area, control value); assay type: in vivo; conditions: diseased area after 3 days, vs untreated group
[1] = tested on: Pathogenesis-related protein (PR) 1a promoter GUS fusion construct; test: Expression of disease resistance marker gene PR1a through GUS activity; assay type: in vivo, Arabidopsis thaliana; conditions: roots treated with 50 μl; observed 1 Dai to 4 Dai after pathogen treatment
[2] = tested on: Pectobacterium carotovorum pv. carotovora; test: Pot experiment, lettuce bacterial soft rot (diseased area, control value); assay type: in vivo; conditions: diseased area after 1 day, vs untreated group
[3] = tested on: lettuce bacterial soft rot (Pectobacterium carotovorum pv. carotovora); test: Optimal conditions, two treatments: lettuce bacterial soft rot (disease severity, control value); conditions: treatment 7 days and 1 day before pathogen; for control value, lettuce bacterial soft rot: from disease severity, vs untreated group; for disease severity (score 0 to 5), lettuce bacterial soft rot: 48 hours after pathogen, water control group 4.2
Protocol: (§2) A total of 3 crops (soybean, cucumber, lettuce) were tested against 3 pathogens (soybean Phytophthora stem and root rot, cucumber bacterial leaf blight, lettuce bacterial soft rot), and each plant was prepared in the same manner as Example 5.
(§3) From the disease severity investigated in this manner, a control value was calculated according to the following Equation.

[4] = tested on: Pseudomonas syringae pv. tomato DC3000 (Pst); assay type: in vivo; conditions: Arabidopsis thaliana; for disease severity (score 0 to 5): water-treated group 4.6; for induced resistance against Pst (disease severity, statistical significance vs water-treated control): 50 μl of 0.1% amino acid to roots, Pst 7 days later, severity 7 days after pathogen
cucumbers = test: Growth promoting ability, shoot weight of cucumbers; assay type: in vivo, cucumber; conditions: untreated group 31 g; for shoot weight, cucumbers (average): root zone treatment twice at one week intervals (valine 5 ml, 0.1%), two weeks after last treatment
Protocol: (§1) The growth of soybeans and cucumbers was observed by treatment with valine. One week after sowing in pots, root zone treatment of each plant was performed using 5 ml of valine at a concentration of 0.1%. The root zone treatment with valine was performed twice at one week intervals. Two weeks after the last treatment, a shoot of each treatment group was cut and weighed.

[5] = tested on: Magnaporthe oryzae KI-1113a; assay type: in vivo; conditions: pot; 5 ml spray (amino acid 0.1%) one day before inoculation; diseased area after 24 h dark plus 4 days; vs untreated group
[6] = tested on: Pseudomonas syringae pv. lachrymans; test: Pot experiment, cucumber bacterial leaf blight (diseased area, control value); assay type: in vivo; conditions: 5 ml spray (amino acid 0.1%) one day before inoculation, diseased area after 3 days, vs untreated group
soybeans = test: Growth promoting ability, shoot weight of soybeans; assay type: in vivo, soybean; conditions: untreated group 8.6 g; for shoot weight, soybeans (average): root zone treatment twice at one week intervals (valine 5 ml, 0.1%), two weeks after last treatment
Protocol: as §1

[7] = tested on: soybean Phytophthora stem and root rot (Phytophthora sojae); conditions: treatment 7 days and 1 day before pathogen; for control value, soybean Phytophthora stem and root rot: from disease severity, vs untreated group; for disease severity (score 0 to 5), soybean Phytophthora stem and root rot: 7 days after pathogen, water control group 4.1
Protocol: as §2, §3

Phytophthora sojae = test: Pot experiment, soybean Phytophthora stem and root rot (diseased area, control value); assay type: in vivo; conditions: diseased area after 3 days, vs untreated group
[8] = tested on: Soybean Phytophthora stem and root rot; conditions: 7 days after disease treatment, NDVI 0.7 or more = healthy, untreated group 26%
Protocol: The induced resistance against Soybean Phytophthora stem and root rot was investigated using a hyperspectral camera and a visible light band camera. Plant preparation was carried out in the same manner as in Example 6, and 7 days after disease treatment, leaves were picked from the same position in each treatment group, and hyperspectral photographs were taken.
It was quantified by the normalized difference vegetation index (NDVI). The degree of diseased leaves in the entire leaf area was indicated from 0.1 to 0.9 and the number of the corresponding pixels was used. Generally, when the number is 0.7 or more, it is considered a healthy leaf.

Pcc pathogen = conditions: Arabidopsis thaliana; 0.1% amino acid; day 3 after Pcc
Pst pathogen = assay type: in vivo, Pseudomonas syringae pv. tomato; conditions: Arabidopsis thaliana; 0.1% amino acid; day 6 after Pst
[9] = valine 5 ml, 0.1%, root zone, twice

Compound | PR1a expression (GUS activity in leaf area) [1] | control value, lettuce bacterial soft rot [2] [%] | control value, lettuce bacterial soft rot [3] [%] | control value, rice blast [5] [%] | control value, cucumber bacterial leaf blight [6] [%] | control value, soybean Phytophthora stem and root rot [7] [%] | control value, soybean Phytophthora stem and root rot (Phytophthora sojae) [%] | induced resistance against Pst (disease severity, statistical significance vs water-treated control) [4] | number of Pcc pathogen vs untreated control group (Pcc pathogen) | number of Pcc pathogens vs BTH-treated group (Pcc pathogen) | number of Pst pathogens vs untreated control group (Pst pathogen) | further results
CSC(=O)c1cccc2nnsc12 [BTH, benzo(1,2,3)-thiadiazole-7-carbothioic acid S-methyl ester, reference compound] | GUS was expressed in the leaf area | 10 | 17 | 9 | 9 | 46 | 10 | – | – | – | – | control value, tomato gray mold (Botrytis cinerea): 20%; disease severity (score 0 to 5) ([4]; Pst, 1 mM BTH): 3.7; shoot weight, cucumbers (average) (cucumbers): 26 g; shoot weight, soybeans (average) (soybeans): 7.3 g
N[C@@H](CC(=O)O)C(=O)O [aspartic acid] | – | – | – | – | – | – | – | induced the resistance against Pst | – | – | – | –
N[C@@H](CCC(=O)O)C(=O)O [glutamic acid] | – | – | – | – | – | – | – | induced the resistance against Pst | – | – | – | –
N[C@@H](Cc1c[nH]cn1)C(=O)O [histidine] | – | – | – | – | – | – | – | induced the resistance against Pst | – | – | – | –
CC[C@H](C)[C@H](N)C(=O)O [isoleucine] | GUS was expressed in the leaf area | 8 | 29 | 16 | 12 | 44 | 10 | induced the resistance against Pst | reduction in the number of Pcc pathogen | reduction in the number of pathogens, as compared to the BTH-treated group | statistically significant reduction in the number of pathogens | healthy leaves (NDVI, hyperspectral camera) [8]: 46%; disease severity (score 0 to 5), lettuce bacterial soft rot [3]: 3; disease severity (score 0 to 5), soybean Phytophthora stem and root rot [7]: 2.3
CC(C)C[C@H](N)C(=O)O [leucine] | – | – | – | – | – | – | – | induced the resistance against Pst | – | – | – | –
O=C(O)[C@@H]1CCCN1 [proline] | GUS was expressed in the leaf area | – | – | – | – | – | – | induced the resistance against Pst | reduction in the number of Pcc pathogen | reduction in the number of pathogens, as compared to the BTH-treated group | statistically significant reduction in the number of pathogens | –
CC(C)[C@H](N)C(=O)O [valine] | GUS was expressed in the leaf area | 13 | 48 | 13 | 17 | 73 | 15 | induced the resistance against Pst | reduction in the number of Pcc pathogen | reduction in the number of pathogens, as compared to the BTH-treated group | statistically significant reduction in the number of pathogens | healthy leaves (NDVI, hyperspectral camera) [8]: 60%; disease severity (score 0 to 5), lettuce bacterial soft rot [3]: 2.2; disease severity (score 0 to 5) ([4]; Pst, 0.1% (0.95 mM) valine): 2.5; disease severity (score 0 to 5) ([4]; Pst, 0.5% valine): 2.4; overall disease severity in valine-treated groups ([4]; Pst, valine 0.5%, 0.1%, 0.05%, 0.01%, 0.005% and 0.001%, vs water-treated group): overall disease severity decreased; shoot weight, cucumbers (average) (cucumbers): 34 g; shoot weight heavier than untreated group, cucumbers (cucumbers; [9]): 3 g; shoot weight, soybeans (average) (soybeans): 11 g; shoot weight heavier than untreated group, soybeans (soybeans; [9]): 2.4 g; disease severity (score 0 to 5), soybean Phytophthora stem and root rot [7]: 1.1
